Reference: ChEMBL document CHEMBL1240397, “Amodiaquine dosage and tolerability for intermittent preventive treatment to prevent malaria in children” (Antimicrob Agents Chemother, 2010)

What was measured:
Format in all cases: organism-based
Conditions in all cases: in vivo, po
Homo sapiens [1] = test: Toxicity in children with malaria under 2 years of age assessed as incidence of vomiting administered with 250 mg sulfalene/12.5 mg pyrimethamine on first day followed by compound treatment at <=15 mg/kg/day, perorally
Homo sapiens [2] = test: Toxicity in children with malaria under 2 years of age assessed as incidence of fever administered with 250 mg sulfalene/12.5 mg pyrimethamine on first day followed by compound treatment at <=15 mg/kg/day, perorally
Homo sapiens [3] = test: Toxicity in children with malaria under 2 years of age assessed as incidence of rashes administered with 250 mg sulfalene/12.5 mg pyrimethamine on first day followed by compound treatment at <=15 mg/kg/day, perorally
Homo sapiens [4] = test: Toxicity in children with malaria under 2 years of age assessed as incidence of itching administered with 250 mg sulfalene/12.5 mg pyrimethamine on first day followed by compound treatment at <=15 mg/kg/day, perorally
Homo sapiens [5] = test: Toxicity in children with malaria under 2 years of age assessed as incidence of headache administered with 250 mg sulfalene/12.5 mg pyrimethamine on first day followed by compound treatment at <=15 mg/kg/day, perorally
Homo sapiens [6] = test: Toxicity in children with malaria over 2 years of age assessed as incidence of vomiting at >=15 mg/kg/day, perorally co-treated with 500 mg sulfalene/25 mg pyrimethamine
Homo sapiens [7] = test: Toxicity in children with malaria over 2 years of age assessed as incidence of fever at >=15 mg/kg/day, perorally co-treated with 500 mg sulfalene/25 mg pyrimethamine
Homo sapiens [8] = test: Toxicity in children with malaria over 2 years of age assessed as incidence of rashes at >=15 mg/kg/day, perorally co-treated with 500 mg sulfalene/25 mg pyrimethamine
Homo sapiens [9] = test: Toxicity in children with malaria over 2 years of age assessed as incidence of itching at >=15 mg/kg/day, perorally co-treated with 500 mg sulfalene/25 mg pyrimethamine
Homo sapiens [10] = test: Toxicity in children with malaria over 2 years of age assessed as incidence of headache at >=15 mg/kg/day, perorally co-treated with 500 mg sulfalene/25 mg pyrimethamine
Homo sapiens [11] = test: Toxicity in children with malaria assessed as incidence of vomiting at <15 mg/kg/day, perorally and co-treated with sulfadoxine and pyrimethamine during intermittent preventive treatment to prevent malaria in children regimen
Homo sapiens [12] = test: Toxicity in children with malaria assessed as febrile incidence at <15 mg/kg/day, perorally and co-treated with sulfadoxine and pyrimethamine during intermittent preventive treatment to prevent malaria in children regimen
Homo sapiens [13] = test: Toxicity in children with malaria assessed as incidence of rashes at <15 mg/kg/day, perorally and co-treated with sulfadoxine and pyrimethamine during intermittent preventive treatment to prevent malaria in children regimen
Homo sapiens [14] = test: Toxicity in children with malaria assessed as incidence of vomiting at 15-17 mg/kg/day, perorally and cotreated with Sulfadoxine and pyrimethamine during intermittent preventive treatment to prevent malaria in children regimen
Homo sapiens [15] = test: Toxicity in children with malaria assessed as febrile incidence at 15-17 mg/kg/day, perorally and co-treated with sulfadoxine and pyrimethamine during intermittent preventive treatment to prevent malaria in children regimen
Homo sapiens [16] = test: Toxicity in children with malaria assessed as incidence of rashes at 15-17 mg/kg/day, perorally and co-treated with sulfadoxine and pyrimethamine during intermittent preventive treatment to prevent malaria in children regimen
Homo sapiens [17] = test: Toxicity in children with malaria assessed as febrile incidence at 17-19 mg/kg/day, perorally and cotreated with Sulfadoxine and pyrimethamine during intermittent preventive treatment to prevent malaria in children regimen
Homo sapiens [18] = test: Toxicity in children with malaria assessed as incidence of rashes at 17-19 mg/kg/day, perorally and cotreated with Sulfadoxine and pyrimethamine during intermittent preventive treatment to prevent malaria in children regimen
Homo sapiens [19] = test: Toxicity in children with malaria assessed as febrile incidence at >19 mg/kg/day, perorally and co-treated with sulfadoxine and pyrimethamine during intermittent preventive treatment to prevent malaria in children regimen
Homo sapiens [20] = test: Toxicity in children with malaria assessed as incidence of rashes at >19 mg/kg/day, perorally and co-treated with sulfadoxine and pyrimethamine during intermittent preventive treatment to prevent malaria in children regimen

`CCN(CC)Cc1cc(Nc2ccnc3cc(Cl)ccc23)ccc1O.Cl` gave an Activity (Homo sapiens [1]) of 26.4%, an Activity (Homo sapiens [2]) of 26.4% and an Activity (Homo sapiens [3]) of 1.9%. It also gave an Activity (Homo sapiens [4]) of 1.9%, an Activity (Homo sapiens [5]) of 9.6% and an Activity (Homo sapiens [6]) of 41.3%. For the same compound, the Activity (Homo sapiens [7]) was 29.8%, the Activity (Homo sapiens [8]) was 1.9% and the Activity (Homo sapiens [9]) was 3.8%. For the same compound, the Activity (Homo sapiens [10]) was 5.8%, the Activity (Homo sapiens [11]) was 7% and the Activity (Homo sapiens [12]) was 6.3%. The Activity (Homo sapiens [13]) was 0.8%, the Activity (Homo sapiens [14]) was 9.2% and the Activity (Homo sapiens [15]) was 10.7%. The Activity (Homo sapiens [16]) was 0%, the Activity (Homo sapiens [17]) was 9.9% and the Activity (Homo sapiens [18]) was 0.8%. It also gave an Activity (Homo sapiens [19]) of 21.7% and an Activity (Homo sapiens [20]) of 2.2%.
